Source: publication PMC4155488 (Bioorganic & medicinal chemistry letters, 2014)
One block for each molecule: values may come before it.

Assays:
hPDE4B = conditions: read-out: IC50 against hPDE4B; reported; cited from earlier work
TbrPDEB1 [1] = target: T1, TbrPDEB1 (Trypanosoma brucei, UniProt Q8WQX9); conditions: result in words; cited from earlier work
T1 sequence (Q8WQX9 1-930): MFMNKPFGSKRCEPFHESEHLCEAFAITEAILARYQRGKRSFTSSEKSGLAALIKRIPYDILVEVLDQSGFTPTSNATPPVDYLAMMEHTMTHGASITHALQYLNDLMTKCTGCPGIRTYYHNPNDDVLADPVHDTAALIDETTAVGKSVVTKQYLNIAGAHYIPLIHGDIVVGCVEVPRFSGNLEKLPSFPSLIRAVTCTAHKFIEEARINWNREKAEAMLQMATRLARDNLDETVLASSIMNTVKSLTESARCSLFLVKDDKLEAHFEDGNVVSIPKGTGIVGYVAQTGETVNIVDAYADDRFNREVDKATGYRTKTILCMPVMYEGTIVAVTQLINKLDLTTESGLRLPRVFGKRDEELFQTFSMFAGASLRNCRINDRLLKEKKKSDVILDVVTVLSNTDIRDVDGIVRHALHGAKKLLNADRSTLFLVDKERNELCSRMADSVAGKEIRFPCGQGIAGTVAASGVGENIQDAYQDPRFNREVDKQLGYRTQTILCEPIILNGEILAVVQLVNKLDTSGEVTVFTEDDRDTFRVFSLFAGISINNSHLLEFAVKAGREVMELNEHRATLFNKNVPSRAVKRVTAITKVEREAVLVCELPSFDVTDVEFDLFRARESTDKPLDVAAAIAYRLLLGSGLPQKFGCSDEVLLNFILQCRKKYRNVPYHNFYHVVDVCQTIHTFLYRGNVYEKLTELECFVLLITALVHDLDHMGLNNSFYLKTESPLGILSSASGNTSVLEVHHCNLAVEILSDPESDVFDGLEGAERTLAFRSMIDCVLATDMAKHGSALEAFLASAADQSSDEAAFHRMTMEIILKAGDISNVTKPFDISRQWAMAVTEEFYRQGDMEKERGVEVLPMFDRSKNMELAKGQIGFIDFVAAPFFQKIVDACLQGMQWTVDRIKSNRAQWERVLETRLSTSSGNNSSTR

hPDE4 = hPDE4 enzyme inhibition; assay type: biochemical, human; conditions: read-out: IC50 against hPDE4
TbrPDEB1 [2] = target: T1, TbrPDEB1; assay: TbrPDEB1 enzyme inhibition; assay type: biochemical; conditions: for fold loss in potency (TbrPDEB1): relative to 12b (linker of four methylene groups)

Structure (SMILES): COc1ccc([C@]2(C#N)CC[C@@H](C(=O)O)CC2)cc1OC1CCCC1 [Compound 1, cilomilast]
IC50 (hPDE4B): 84 nM

Structure (SMILES): O=C(Nc1c(Cl)cncc1Cl)c1ccc(OC(F)F)c(OCC2CC2)c1 [Compound 4, roflumilast]
TbrPDEB1 activity (TbrPDEB1 [1]): completely inactive

Structure (SMILES): COc1ccc([C@]2(C#N)CC[C@@H](C(=O)O)CC2)cc1OCc1ccccc1 [Compound 7]
IC50 (hPDE4): 540 nM

Structure (SMILES): COc1ccc([C@]2(C#N)CC[C@@H](C(=O)O)CC2)cc1OCCCCOc1ccccc1 [Compound 12b]
times more active than 1 against TbrPDEB1 (TbrPDEB1 [2]; ratio of TbrPDEB1 IC50 versus compound 1): 17 fold

Continued, values first:

fold loss in potency (TbrPDEB1) (TbrPDEB1 [2]): ~ 10 fold
Structure (SMILES): COc1ccc([C@]2(C#N)CC[C@@H](C(=O)O)CC2)cc1OCCCOc1ccccc1 [Compound 12c]

fold loss in potency (TbrPDEB1) (TbrPDEB1 [2]): ~ 10 fold
Structure (SMILES): COc1ccc([C@]2(C#N)CC[C@@H](C(=O)O)CC2)cc1OCCCCCOc1ccccc1 [Compound 12d]
